Test system: KCL-22
Experiment: cell viability (% survival relative to DMSO control, bortezomib = 0%); higher = less cytotoxic
Conditions: 10 nM; 72 h
In short: (§1)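 Percent survival figures are means of duplicate wells. They were obtained by CellTiter-Glo luminescence after 10 AML and 5 CML cell lines spent 72 h at 37 °C with 5% CO2 in 384-well plates with compounds at 1, 10, 100, 1000 or 10000 nM. Vehicle was set to 100% and a 10 µM positive control to 0%.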

SMILES	cell viability [%]
CC(=O)N[C@@H](CS)C(=O)O [Acetylcysteine]	92.8
CCCCC/C=C\C/C=C\C/C=C\C/C=C\CCCC(=O)C(F)(F)F [Arachidonyl trifluoromethyl ketone]	103
O=[As]O[As]=O (centres undefined) [Arsenic trioxide]	107

Same assay, conditions: 100 nM; 72 h

SMILES	cell viability [%]
CC(=O)N1CCN(c2ccc(OC[C@@H]3CO[C@@](Cn4ccnc4)(c4ccc(Cl)cc4Cl)O3)cc2)CC1 (racemic) [Ketoconazole]	101
CCC(CC#N)OC(=O)N[C@@H](C)c1cccc(NC(=O)Nc2ccc(-c3cnco3)c(OC)c2)c1 (stereo in doubt) [AVN-944]	32.7
OC[C@H]1OC(O)C[C@@H](O)[C@@H]1O (some centres undefined) [2-deoxyglucose]	107
O=C(C(=O)c1ccc(Br)cc1)c1ccc(Br)cc1 [4,4'-Dibromobenzil]	94.9
NS(=O)(=O)c1ccc(NC(=O)Cc2ccccc2)cc1 [4-(2-Phenylacetamido)Benzenesulfonamide]	83.9
NCc1ccc(S(N)(=O)=O)cc1 [4-Homosulfanilamide]	103
Oc1ncc(F)c(O)n1 [5-fluorouracil]	98.3
NCc1ccc(-c2cccnc2)s1 [(5-Pyrid-3-YLTHIEN-2-YL)METHYLAMINE]	91.6
CC(=O)N[C@@H](CS)C(=O)O [Acetylcysteine]	102
CCCCC/C=C\C/C=C\C/C=C\C/C=C\CCCC(=O)C(F)(F)F [Arachidonyl trifluoromethyl ketone]	105
O=[As]O[As]=O (centres undefined) [Arsenic trioxide]	102

Same assay, conditions: 1000 nM; 72 h

SMILES	cell viability [%]
CC(=O)N1CCN(c2ccc(OC[C@@H]3CO[C@@](Cn4ccnc4)(c4ccc(Cl)cc4Cl)O3)cc2)CC1 (racemic) [Ketoconazole]	103
CCC(CC#N)OC(=O)N[C@@H](C)c1cccc(NC(=O)Nc2ccc(-c3cnco3)c(OC)c2)c1 (stereo in doubt) [AVN-944]	11.6
OC[C@H]1OC(O)C[C@@H](O)[C@@H]1O (some centres undefined) [2-deoxyglucose]	90.6
O=C(C(=O)c1ccc(Br)cc1)c1ccc(Br)cc1 [4,4'-Dibromobenzil]	101
NS(=O)(=O)c1ccc(NC(=O)Cc2ccccc2)cc1 [4-(2-Phenylacetamido)Benzenesulfonamide]	108
NCc1ccc(S(N)(=O)=O)cc1 [4-Homosulfanilamide]	103
Oc1ncc(F)c(O)n1 [5-fluorouracil]	84.3
NCc1ccc(-c2cccnc2)s1 [(5-Pyrid-3-YLTHIEN-2-YL)METHYLAMINE]	84.7
CC(=O)N[C@@H](CS)C(=O)O [Acetylcysteine]	93.3
CCCCC/C=C\C/C=C\C/C=C\C/C=C\CCCC(=O)C(F)(F)F [Arachidonyl trifluoromethyl ketone]	97.2
O=[As]O[As]=O (centres undefined) [Arsenic trioxide]	99

Same assay, conditions: 10000 nM; 72 h

SMILES	cell viability [%]
CC(=O)N1CCN(c2ccc(OC[C@@H]3CO[C@@](Cn4ccnc4)(c4ccc(Cl)cc4Cl)O3)cc2)CC1 (racemic) [Ketoconazole]	44.1
CCC(CC#N)OC(=O)N[C@@H](C)c1cccc(NC(=O)Nc2ccc(-c3cnco3)c(OC)c2)c1 (stereo in doubt) [AVN-944]	7.56
OC[C@H]1OC(O)C[C@@H](O)[C@@H]1O (some centres undefined) [2-deoxyglucose]	104
O=C(C(=O)c1ccc(Br)cc1)c1ccc(Br)cc1 [4,4'-Dibromobenzil]	95.5
NS(=O)(=O)c1ccc(NC(=O)Cc2ccccc2)cc1 [4-(2-Phenylacetamido)Benzenesulfonamide]	93.9
NCc1ccc(S(N)(=O)=O)cc1 [4-Homosulfanilamide]	106
Oc1ncc(F)c(O)n1 [5-fluorouracil]	30.6
NCc1ccc(-c2cccnc2)s1 [(5-Pyrid-3-YLTHIEN-2-YL)METHYLAMINE]	88.8
CC(=O)N[C@@H](CS)C(=O)O [Acetylcysteine]	97.6
CCCCC/C=C\C/C=C\C/C=C\C/C=C\CCCC(=O)C(F)(F)F [Arachidonyl trifluoromethyl ketone]	87.5
O=[As]O[As]=O (centres undefined) [Arsenic trioxide]	74.4

Test system: LAMA-84
Experiment: as above
Conditions: 1 nM; 72 h
In short: as §1

SMILES	cell viability [%]
CC(=O)N1CCN(c2ccc(OC[C@@H]3CO[C@@](Cn4ccnc4)(c4ccc(Cl)cc4Cl)O3)cc2)CC1 (racemic) [Ketoconazole]	104
CCC(CC#N)OC(=O)N[C@@H](C)c1cccc(NC(=O)Nc2ccc(-c3cnco3)c(OC)c2)c1 (stereo in doubt) [AVN-944]	92.5
OC[C@H]1OC(O)C[C@@H](O)[C@@H]1O (some centres undefined) [2-deoxyglucose]	107
O=C(C(=O)c1ccc(Br)cc1)c1ccc(Br)cc1 [4,4'-Dibromobenzil]	98.8
NS(=O)(=O)c1ccc(NC(=O)Cc2ccccc2)cc1 [4-(2-Phenylacetamido)Benzenesulfonamide]	97.4
NCc1ccc(S(N)(=O)=O)cc1 [4-Homosulfanilamide]	99.5
Oc1ncc(F)c(O)n1 [5-fluorouracil]	91.1
NCc1ccc(-c2cccnc2)s1 [(5-Pyrid-3-YLTHIEN-2-YL)METHYLAMINE]	108
CC(=O)N[C@@H](CS)C(=O)O [Acetylcysteine]	96.2
CCCCC/C=C\C/C=C\C/C=C\C/C=C\CCCC(=O)C(F)(F)F [Arachidonyl trifluoromethyl ketone]	106
O=[As]O[As]=O (centres undefined) [Arsenic trioxide]	104

Same assay, conditions: 10 nM; 72 h

SMILES	cell viability [%]
CC(=O)N1CCN(c2ccc(OC[C@@H]3CO[C@@](Cn4ccnc4)(c4ccc(Cl)cc4Cl)O3)cc2)CC1 (racemic) [Ketoconazole]	97.9
CCC(CC#N)OC(=O)N[C@@H](C)c1cccc(NC(=O)Nc2ccc(-c3cnco3)c(OC)c2)c1 (stereo in doubt) [AVN-944]	102
OC[C@H]1OC(O)C[C@@H](O)[C@@H]1O (some centres undefined) [2-deoxyglucose]	114
O=C(C(=O)c1ccc(Br)cc1)c1ccc(Br)cc1 [4,4'-Dibromobenzil]	101
NS(=O)(=O)c1ccc(NC(=O)Cc2ccccc2)cc1 [4-(2-Phenylacetamido)Benzenesulfonamide]	104
NCc1ccc(S(N)(=O)=O)cc1 [4-Homosulfanilamide]	97.7
Oc1ncc(F)c(O)n1 [5-fluorouracil]	98.5
NCc1ccc(-c2cccnc2)s1 [(5-Pyrid-3-YLTHIEN-2-YL)METHYLAMINE]	106
CC(=O)N[C@@H](CS)C(=O)O [Acetylcysteine]	96.8
CCCCC/C=C\C/C=C\C/C=C\C/C=C\CCCC(=O)C(F)(F)F [Arachidonyl trifluoromethyl ketone]	95.5
O=[As]O[As]=O (centres undefined) [Arsenic trioxide]	100

Same assay, conditions: 100 nM; 72 h

SMILES	cell viability [%]
CC(=O)N1CCN(c2ccc(OC[C@@H]3CO[C@@](Cn4ccnc4)(c4ccc(Cl)cc4Cl)O3)cc2)CC1 (racemic) [Ketoconazole]	96.3
CCC(CC#N)OC(=O)N[C@@H](C)c1cccc(NC(=O)Nc2ccc(-c3cnco3)c(OC)c2)c1 (stereo in doubt) [AVN-944]	43.9
OC[C@H]1OC(O)C[C@@H](O)[C@@H]1O (some centres undefined) [2-deoxyglucose]	95.6
O=C(C(=O)c1ccc(Br)cc1)c1ccc(Br)cc1 [4,4'-Dibromobenzil]	109
NS(=O)(=O)c1ccc(NC(=O)Cc2ccccc2)cc1 [4-(2-Phenylacetamido)Benzenesulfonamide]	110
NCc1ccc(S(N)(=O)=O)cc1 [4-Homosulfanilamide]	94.7
Oc1ncc(F)c(O)n1 [5-fluorouracil]	99.8
NCc1ccc(-c2cccnc2)s1 [(5-Pyrid-3-YLTHIEN-2-YL)METHYLAMINE]	102
CC(=O)N[C@@H](CS)C(=O)O [Acetylcysteine]	88
CCCCC/C=C\C/C=C\C/C=C\C/C=C\CCCC(=O)C(F)(F)F [Arachidonyl trifluoromethyl ketone]	77.6
O=[As]O[As]=O (centres undefined) [Arsenic trioxide]	109

Same assay, conditions: 1000 nM; 72 h

SMILES	cell viability [%]
CC(=O)N1CCN(c2ccc(OC[C@@H]3CO[C@@](Cn4ccnc4)(c4ccc(Cl)cc4Cl)O3)cc2)CC1 (racemic) [Ketoconazole]	96.7
CCC(CC#N)OC(=O)N[C@@H](C)c1cccc(NC(=O)Nc2ccc(-c3cnco3)c(OC)c2)c1 (stereo in doubt) [AVN-944]	19
OC[C@H]1OC(O)C[C@@H](O)[C@@H]1O (some centres undefined) [2-deoxyglucose]	86.3
O=C(C(=O)c1ccc(Br)cc1)c1ccc(Br)cc1 [4,4'-Dibromobenzil]	106
NS(=O)(=O)c1ccc(NC(=O)Cc2ccccc2)cc1 [4-(2-Phenylacetamido)Benzenesulfonamide]	97.4
NCc1ccc(S(N)(=O)=O)cc1 [4-Homosulfanilamide]	99.3
Oc1ncc(F)c(O)n1 [5-fluorouracil]	86.9
NCc1ccc(-c2cccnc2)s1 [(5-Pyrid-3-YLTHIEN-2-YL)METHYLAMINE]	93
CC(=O)N[C@@H](CS)C(=O)O [Acetylcysteine]	101
CCCCC/C=C\C/C=C\C/C=C\C/C=C\CCCC(=O)C(F)(F)F [Arachidonyl trifluoromethyl ketone]	85.8
O=[As]O[As]=O (centres undefined) [Arsenic trioxide]	90.2

Same assay, conditions: 10000 nM; 72 h

SMILES	cell viability [%]
CC(=O)N1CCN(c2ccc(OC[C@@H]3CO[C@@](Cn4ccnc4)(c4ccc(Cl)cc4Cl)O3)cc2)CC1 (racemic) [Ketoconazole]	82.6
CCC(CC#N)OC(=O)N[C@@H](C)c1cccc(NC(=O)Nc2ccc(-c3cnco3)c(OC)c2)c1 (stereo in doubt) [AVN-944]	12.5
OC[C@H]1OC(O)C[C@@H](O)[C@@H]1O (some centres undefined) [2-deoxyglucose]	96.8
O=C(C(=O)c1ccc(Br)cc1)c1ccc(Br)cc1 [4,4'-Dibromobenzil]	96.9
NS(=O)(=O)c1ccc(NC(=O)Cc2ccccc2)cc1 [4-(2-Phenylacetamido)Benzenesulfonamide]	102
NCc1ccc(S(N)(=O)=O)cc1 [4-Homosulfanilamide]	100
Oc1ncc(F)c(O)n1 [5-fluorouracil]	48.8
NCc1ccc(-c2cccnc2)s1 [(5-Pyrid-3-YLTHIEN-2-YL)METHYLAMINE]	91.2
CC(=O)N[C@@H](CS)C(=O)O [Acetylcysteine]	101
CCCCC/C=C\C/C=C\C/C=C\C/C=C\CCCC(=O)C(F)(F)F [Arachidonyl trifluoromethyl ketone]	79.5
O=[As]O[As]=O (centres undefined) [Arsenic trioxide]	53.2

Test system: KU-812
Experiment: as above
Conditions: 1 nM; 72 h
In short: as §1

SMILES	cell viability [%]
CC(=O)N1CCN(c2ccc(OC[C@@H]3CO[C@@](Cn4ccnc4)(c4ccc(Cl)cc4Cl)O3)cc2)CC1 (racemic) [Ketoconazole]	100
CCC(CC#N)OC(=O)N[C@@H](C)c1cccc(NC(=O)Nc2ccc(-c3cnco3)c(OC)c2)c1 (stereo in doubt) [AVN-944]	93.6
OC[C@H]1OC(O)C[C@@H](O)[C@@H]1O (some centres undefined) [2-deoxyglucose]	105
O=C(C(=O)c1ccc(Br)cc1)c1ccc(Br)cc1 [4,4'-Dibromobenzil]	86.9
NS(=O)(=O)c1ccc(NC(=O)Cc2ccccc2)cc1 [4-(2-Phenylacetamido)Benzenesulfonamide]	92.1
NCc1ccc(S(N)(=O)=O)cc1 [4-Homosulfanilamide]	97.9
Oc1ncc(F)c(O)n1 [5-fluorouracil]	97.6
NCc1ccc(-c2cccnc2)s1 [(5-Pyrid-3-YLTHIEN-2-YL)METHYLAMINE]	104
CC(=O)N[C@@H](CS)C(=O)O [Acetylcysteine]	102
CCCCC/C=C\C/C=C\C/C=C\C/C=C\CCCC(=O)C(F)(F)F [Arachidonyl trifluoromethyl ketone]	104
O=[As]O[As]=O (centres undefined) [Arsenic trioxide]	98.5

Same assay, conditions: 10 nM; 72 h

SMILES	cell viability [%]
CC(=O)N1CCN(c2ccc(OC[C@@H]3CO[C@@](Cn4ccnc4)(c4ccc(Cl)cc4Cl)O3)cc2)CC1 (racemic) [Ketoconazole]	102
CCC(CC#N)OC(=O)N[C@@H](C)c1cccc(NC(=O)Nc2ccc(-c3cnco3)c(OC)c2)c1 (stereo in doubt) [AVN-944]	106
OC[C@H]1OC(O)C[C@@H](O)[C@@H]1O (some centres undefined) [2-deoxyglucose]	101
O=C(C(=O)c1ccc(Br)cc1)c1ccc(Br)cc1 [4,4'-Dibromobenzil]	98.3
NS(=O)(=O)c1ccc(NC(=O)Cc2ccccc2)cc1 [4-(2-Phenylacetamido)Benzenesulfonamide]	99.1
NCc1ccc(S(N)(=O)=O)cc1 [4-Homosulfanilamide]	93.1
Oc1ncc(F)c(O)n1 [5-fluorouracil]	100
NCc1ccc(-c2cccnc2)s1 [(5-Pyrid-3-YLTHIEN-2-YL)METHYLAMINE]	107
CC(=O)N[C@@H](CS)C(=O)O [Acetylcysteine]	93.4
CCCCC/C=C\C/C=C\C/C=C\C/C=C\CCCC(=O)C(F)(F)F [Arachidonyl trifluoromethyl ketone]	86.9
O=[As]O[As]=O (centres undefined) [Arsenic trioxide]	105

Same assay, conditions: 100 nM; 72 h

SMILES	cell viability [%]
CC(=O)N1CCN(c2ccc(OC[C@@H]3CO[C@@](Cn4ccnc4)(c4ccc(Cl)cc4Cl)O3)cc2)CC1 (racemic) [Ketoconazole]	95.1
CCC(CC#N)OC(=O)N[C@@H](C)c1cccc(NC(=O)Nc2ccc(-c3cnco3)c(OC)c2)c1 (stereo in doubt) [AVN-944]	50.2
OC[C@H]1OC(O)C[C@@H](O)[C@@H]1O (some centres undefined) [2-deoxyglucose]	101
O=C(C(=O)c1ccc(Br)cc1)c1ccc(Br)cc1 [4,4'-Dibromobenzil]	104
NS(=O)(=O)c1ccc(NC(=O)Cc2ccccc2)cc1 [4-(2-Phenylacetamido)Benzenesulfonamide]	105
NCc1ccc(S(N)(=O)=O)cc1 [4-Homosulfanilamide]	96.3
Oc1ncc(F)c(O)n1 [5-fluorouracil]	88.4
NCc1ccc(-c2cccnc2)s1 [(5-Pyrid-3-YLTHIEN-2-YL)METHYLAMINE]	97.7
CC(=O)N[C@@H](CS)C(=O)O [Acetylcysteine]	87.9
CCCCC/C=C\C/C=C\C/C=C\C/C=C\CCCC(=O)C(F)(F)F [Arachidonyl trifluoromethyl ketone]	88.4
O=[As]O[As]=O (centres undefined) [Arsenic trioxide]	112

Same assay, conditions: 1000 nM; 72 h

SMILES	cell viability [%]
CC(=O)N1CCN(c2ccc(OC[C@@H]3CO[C@@](Cn4ccnc4)(c4ccc(Cl)cc4Cl)O3)cc2)CC1 (racemic) [Ketoconazole]	105
CCC(CC#N)OC(=O)N[C@@H](C)c1cccc(NC(=O)Nc2ccc(-c3cnco3)c(OC)c2)c1 (stereo in doubt) [AVN-944]	9.58
OC[C@H]1OC(O)C[C@@H](O)[C@@H]1O (some centres undefined) [2-deoxyglucose]	85.1
O=C(C(=O)c1ccc(Br)cc1)c1ccc(Br)cc1 [4,4'-Dibromobenzil]	103
NS(=O)(=O)c1ccc(NC(=O)Cc2ccccc2)cc1 [4-(2-Phenylacetamido)Benzenesulfonamide]	105

From the supplement of paper PMC8671470
